Assay results: patent US20180273538A1, “PYRROLO[2,3-d]PYRIMIDINE DERIVATIVES, A PROCESS FOR THEIR PREPARATION AND PHARMACEUTICAL COMPOSITIONS CONTAINING THEM” (LES LABORATOIRES SERVIER, priority 2015, published 2018)

Each compound was assayed against T1, His-TEV-DYRK1A Kinase domain (aa127-485) (Homo sapiens, UniProt Q13627) (assay: Kinase ADP assay (ADP Hunter Plus)).
T1 construct: His-TEV-DYRK1A Kinase domain (aa127-485); His (N); TEV cleavage site (N)
Format: biochemical
Work on Cc1nc(N2CC[C@H]3CCCC[C@@H]3C2)c2c(-c3ccnc(N)c3)c[nH]c2n1 [Example 111, 4-{2-methyl-4-[(4aR,8aS)-octahydro-isoquinolin-2(1H)-yl]-7H-pyrrolo[2,3-d]pyrimidin-5-yl}pyridin-2-amine] yielded an IC50 of 0.013 µM.
With Cc1nc(-c2cccc(OCCN(C)C)c2)c2c(-c3ccnc(N)c3)c[nH]c2n1 [Example 203] the IC50 was 0.155 µM.
With Cc1nc(NCc2cccnc2)c2c(-c3ccnc(N)c3)c[nH]c2n1 [Example 34, 5-(2-aminopyridin-4-yl)-2-methyl-N-(pyridin-3-ylmethyl)-7H-pyrrolo[2,3-d]pyrimidin-4-amine] the IC50 was 0.278 µM.
Cc1nc(NCc2ccnn2C)c2c(-c3ccnc(N)c3)c[nH]c2n1 [Example 38, 5-(2-aminopyridin-4-yl)-2-methyl-N-[(1-methyl-1H-pyrazol-5-yl)methyl]-7H-pyrrolo[2,3-d]pyrimidin-4-amine] was tested, and the IC50 was 0.149 µM.
With Cc1cc(-c2c[nH]c3nc(C)nc(OC[C@@H]4CCCNC4)c23)ccn1 [Example 6, 2-methyl-5-(2-methylpyridin-4-yl)-4-[(3R)-piperidin-3-ylmethoxy]-7H-pyrrolo[2,3-d]pyrimidine] the IC50 was 0.07 µM.
Cc1nc(OCCN2CCCCC2)c2c(-c3ccncc3)c[nH]c2n1 [Example 13, 2-methyl-4-[2-(piperidin-1-yl)ethoxy]-5-(pyridin-4-yl)-7H-pyrrolo[2,3-d]pyrimidine] gave an IC50 of 1.37 µM.
Cc1nc(N2CCN(C)CC2)c2c(-c3ccnc(N)c3)c[nH]c2n1 [Example 33, 4-[2-methyl-4-(4-methypiperazin-1-yl)-7H-pyrrolo[2,3-d]pyrimidin-5-yl]pyridin-2-amine] showed an IC50 of 0.165 µM.
Work on COC1CCN(c2nc(C)nc3[nH]cc(-c4cc(N)nc(N)c4)c23)CC1 [Example 139, 4-[4-(4-methoxypiperidin-1-yl)-2-methyl-7H-pyrrolo[2,3-d]pyrimidin-5-yl]pyridine-2,6-diamine] yielded an IC50 of 0.883 µM.
Cc1nc(N2CCCC2)c2c(-c3ccnc(N)c3)c[nH]c2n1 [Example 30, 4-[2-methyl-4-(pyrrolidin-1-yl)-7H-pyrrolo[2,3-d]pyrimidin-5-yl]pyridin-2-amine] gave an IC50 of 0.827 µM.
Cc1nc(N2CCCC2C(F)(F)F)c2c(-c3ccnc(N)c3)c[nH]c2n1 (stereo not shown) [Example 107, 4-{2-methyl-4-[2-(trifluoromethyl)pyrrolidin-1-yl]-7H-pyrrolo[2,3-d]pyrimidin-5-yl}pyridin-2-amine] showed an IC50 of 0.666 µM.
In the case of Cc1nc(NCc2cc(-c3ccccc3)no2)c2c(-c3ccnc(N)c3)c[nH]c2n1 [Example 88, 5-(2-aminopyridin-4-yl)-2-methyl N-[(3-phenyl-1,2-oxazol-5-yl)methyl]-7H-pyrrolo[2,3-d]pyrimidin-4-amine], the IC50 is reported as 2.09 µM.
Cc1nc(-c2cccc(OCCCN3CCCCC3)c2)c2c(-c3ccnc(N)c3)c[nH]c2n1 [Example 199] gave an IC50 of 0.148 µM.
Work on Cc1nc(NCC2COc3ccccc32)c2c(-c3ccnc(N)c3)c[nH]c2n1 (stereo not shown) [Example 112, 5-(2-aminopyridin-4-yl)-N-(2,3-dihydro-1-benzofuran-3-ylmethyl)-2-methyl-7H-pyrrolo[2,3-d]pyrimidin-4-amine] yielded an IC50 of 0.234 µM.
For Cc1nc(CN2CCCC(F)(F)C2)c2c(-c3ccnc(N)c3)c[nH]c2n1 [Example 177], the IC50 was 0.532 µM.
Compound COc1cc(F)cc(-c2nc(C)nc3[nH]cc(-c4ccnc(N)c4)c23)c1 [Example 162, 4-[4-(3-fluoro-5-methoxyphenyl)-2-methyl-7H-pyrrolo[2,3-d]pyrimidin-5-yl]pyridin-2-amine] has an IC50 of 0.014 µM.
Compound Cc1nc(-c2cccc(N3CCCC3)c2)c2c(-c3ccnc(N)c3)c[nH]c2n1 [Example 171] has an IC50 of 0.033 µM.
Compound COc1cccc(C(F)(F)F)c1CNc1nc(C)nc2[nH]cc(-c3ccnc(C)c3)c12 [Example 146, N-[2-methoxy-6-(trifluoromethyl)benzyl]-2-methyl-5-(2-methylpyridin-4-yl)-7H-pyrrolo[2,3-d]pyrimidin-4-amine] has an IC50 of 0.172 µM.
Cc1nc([C@H]2CCc3ccccc3C2)c2c(-c3ccnc(N)c3)c[nH]c2n1 [Example 189] gave an IC50 of 0.062 µM.
With Cc1nc(NC2CCCCC2)c2c(-c3ccnc(N)c3)c[nH]c2n1 [Example 93, 5-(2-aminopyridin-4-yl)-N-cyclohexyl-2-methyl-7H-pyrrolo[2,3-d]pyrimidin-4-amine] the IC50 was 0.176 µM.
Cc1nc(OCc2cc(-c3ccc(F)cc3)on2)c2c(-c3ccnc(N)c3)c[nH]c2n1 [Example 24, 4-(4-{[5-(4-fluorophenyl)-1,2-oxazal-3-yl]methoxy}-2-methyl-7H-pyrrolo[2,3-d]pyrimidin-5-yl)pyridin-2-amine] gave an IC50 of 0.066 µM.
Cc1nc(OCc2cccs2)c2c(-c3ccnc(N)c3)c[nH]c2n1 [Example 19, 4-[2-methyl-4-(thiophen-2-ylmethoxy)-7H-pyrrolo[2,3-d]pyrimidin-5-yl]pyridin-2-amine] gave an IC50 of 0.025 µM.
With Nc1cc(-c2c[nH]c3nc(C4CC4)nc(NCc4c(F)cccc4F)c23)ccn1 [Example 147, 5-(2-aminopyridin-4-yl)-2-cyclopropyl-N-(2,6-difluorobenzyl)-7H-pyrrolo[2,3-d]pyrimidin-4-amine] the IC50 was 0.17 µM.
Cc1nc(OCC2CC2)c2c(-c3ccncc3)c[nH]c2n1 [Example 7, 4-(cyclopropylmethoxy)-2-methyl-5-(pyridin-4-yl)-7H-pyrrolo[2,3-d]pyrimidine] was tested, and the IC50 was 0.039 µM.
Work on Cc1cc(-c2c[nH]c3nc(C)nc(NCc4c(F)cccc4F)c23)nc(N)n1 [Example 205, 5-(2-amino-6-methylpyrimidin-4-yl)-N-(2,6-difluorobenzyl)-2-methyl-7H-pyrrolo[2,3-d]pyrimidin-4-amine] yielded an IC50 of 0.055 µM.
Cc1nc(OCc2cccnc2)c2c(-c3ccnc(N)c3)c[nH]c2n1 [Example 22, 4-[2-methyl-4-(pyridin-3-ylmethoxy)-7H-pyrrolo[2,3-d]pyrimidin-5-yl]pyridin-2-amine] showed an IC50 of 0.018 µM.
With Cc1nc(Nc2ccccc2)c2c(-c3ccnc(N)c3)c[nH]c2n1 [Example 129, 5-(2-aminopyridin-4-yl)-2-methyl-N-phenyl-7H-pyrrolo[2,3-d]pyrimidin-4-amine] the IC50 was 0.072 µM.
Work on Cc1nc(CN2CCC(F)(F)C2)c2c(-c3ccnc(N)c3)c[nH]c2n1 [Example 176] yielded an IC50 of 0.196 µM.
With Cc1nc(OCCN2CCCC2)c2c(-c3ccncc3)c[nH]c2n1 [Example 12, 2-methyl-5-(pyridin-4-yl)-4-[2-(pyrrolidin-1-yl)ethoxy]-7H-pyrrolo[2,3-d]pyrimidine] the IC50 was 2.04 µM.
For Cc1cc(-c2c[nH]c3nc(C)nc(NCc4ccccc4)c23)ccn1 [Example 43, N-benzyl-2-methyl-5-(2-methylpyridin-4-yl)-7H-pyrrolo[2,3-d]pyrimidin-4-amine], the IC50 was 0.278 µM.
Cc1nc(N2CCOCC2)c2c(-c3cc(N)nc(N)c3)c[nH]c2n1 [Example 140, 4-[2-methyl-4-(morpholin-4-yl)-7H-pyrrolo[2,3-d]pyrimidin-5-yl]pyridine-2,6-diamine] gave an IC50 of 1.22 µM.
Cc1nc(OCC2CCCO2)c2c(-c3ccncc3)c[nH]c2n1 (stereo not shown) [Example 14, 2-methyl-5-(pyridin-4-yl)-4-(tetrahydrofuran-2-ylmethoxy)-7H-pyrrolo[2,3-d]pyrimidine] was tested, and the IC50 was 0.043 µM.
In the case of Cc1nc(-c2cccc(C(F)(F)F)c2)c2c(-c3ccnc(N)c3)c[nH]c2n1 [Example 168, 4-{2-methyl-4-[3-(trifluoromethyl)phenyl]-7H-pyrrolo[2,3-d]pyrimidin-5-yl}pyridin-2-amine], the IC50 is reported as 0.01 µM.
For Cc1nc(NCc2cncs2)c2c(-c3ccnc(N)c3)c[nH]c2n1 [Example 41, 5-(2-aminopyridin-4-yl)-2-methyl-N-(1,3-thiazol-5-ylmethyl)-7H-pyrrolo[2,3-d]pyrimidin-4-amine], the IC50 was 0.158 µM.
Compound Cc1nc(-c2ccc(CN3CCN(C)CC3)cc2)c2c(-c3ccnc(N)c3)c[nH]c2n1 [Example 169, 4-(2-methyl-4-{4-[(4-methylpiperazin-1-yl)methyl]phenyl}-7H-pyrrolo[2,3-d]pyrimidin-5-yl)pyridin-2-amine] has an IC50 of 0.216 µM.
Compound Cc1nc(-c2cccc(OCCCN3CCOCC3)c2)c2c(-c3ccnc(N)c3)c[nH]c2n1 [Example 174, 4-(2-methyl-4-{3-[3-(morpholin-4-yl)propoxy]phenyl}-7H-pyrrolo[2,3-d]pyrimidin-5-yl)pyridin-2-amine] has an IC50 of 0.07 µM.
In the case of C#Cc1nc(N2CCc3ccccc3C2)c2c(-c3ccnc(N)n3)c[nH]c2n1 [Example 211, 4-[4-(3,4-dihydroisoquinolin-2(1H)-yl)-2-ethynyl-7H-pyrrolo[2,3-d]pyrimidin-5-yl]pyrimidin-2-amine], the IC50 is reported as 0.027 µM.
For COC1CCCN(c2nc(C)nc3[nH]cc(-c4ccnc(N)c4)c23)C1 (stereo not shown) [Example 138, 4-[4-(3-methoxypiperidin-1-yl)-2-methyl-7H-pyrrolo[2,3-d]pyrimidin-5-yl]pyridin-2-amine], the IC50 was 0.407 µM.
Work on Cc1nc(N[C@@H]2CCc3ccccc32)c2c(-c3cc(N)nc(N)c3)c[nH]c2n1 [Example 118, 4-{4-[(1R)-2,3-dihydro-1H-inden-1-ylamino]-2-methyl-7H-pyrrolo[2,3-d]pyrimidin-5-yl}pyridine-2,6-diamine] yielded an IC50 of 0.011 µM.
Cc1nc(N2CCOCC2)c2c(-c3ccnc(N)c3)c[nH]c2n1 [Example 134, 4-[2-methyl-4-(morpholin-4-yl)-7H-pyrrolo[2,3-d]pyrimidin-5-yl]pyridin-2-amine] gave an IC50 of 0.848 µM.
Compound Cc1nc(CCc2ccccc2)c2c(-c3ccnc(N)c3)c[nH]c2n1 [Example 160] has an IC50 of 0.184 µM.
For COC1CCN(c2nc(C)nc3[nH]cc(-c4ccnc(N)c4)c23)CC1 [Example 133, 4-[4-(4-methoxypiperidin-1-yl)-2-methyl-7H-pyrrolo[2,3-d]pyrimidin-5-yl]pyridin-2-amine], the IC50 was 0.269 µM.
With CCOc1ccc(-c2nc(C)nc3[nH]cc(-c4ccnc(N)c4)c23)cc1 [Example 172] the IC50 was 0.037 µM.
CCC(Nc1nc(C)nc2[nH]cc(-c3ccnc(N)c3)c12)c1ncccc1F (stereo not shown) [Example 121, 5-(2-aminopyridin-4-yl)-N-[1-(3-fluoropyridin-2-yl)propyl]-2-methyl-7H-pyrrolo[2,3-d]pyrimidin-4-amine] gave an IC50 of 0.066 µM.
